Laboratory results as given in PubChem BioAssay AID1963972 (Molecular Pharmacology Branch, DTP, NCI, 2024).
pIC50: −log10 of the molar value.

Tested on: 945468-187-T-J2-PDC spheroids viability
Assay: Anticancer human tumor 945468-187-T-J2-PDC patient-derived rectal carcinoma cell line growth inhibition [PI3K]
Conditions: spheroids with HUVEC and MSC; for viability, T/C: stronger effect = lower value
Description: Combinatorial screen of targeted agents with the PI3K inhibitors inavolisib, alpelisib, duvelisib, and copanlisib in multi-cell type tumor spheroids
A high-throughput screen of multi-cell type tumor spheroids was designed to identify active combinations of targeted small molecules and PI3K pathway inhibitors. Complex spheroids include a stromal component modeled by human endothelial cells (HUVEC) and fibroblasts modeled by human mesenchymal stem cells (MSCs). The concentration ranges selected for each drug and investigational agent were based upon clinically achievable concentrations if the clinical Cmax of the agent was known.
Compounds. The drugs and investigational agents: inavolisib (NSC800729), alpelisib (NSC765974), duvelisib (NSC772469), copanlisib (NSC816437), ipatasertib (NSC767898), afuresertib (NSC778305), talazoparib (NSC767125), sapanisertib (NSC764658), selumetinib (NSC741078), tovorafenib (DAY101, NSC766906), vemurafenib (NSC761431), ravoxertinib (NSC781343), sotorasib (NSC818433), MRTX1133 (NSC 836407), abemaciclib (NSC 768073), palbociclib (NSC758247), venetoclax (NSC 766270), SY5609 (NSC837396), enzalutamide (NSC755605), and darolutamide (NSC825331), were obtained from the National Cancer Institute (NCI) Developmental Therapeutics Program Chemical Repository. The FDA-approved anticancer drug set is available from the NCI Developmental Therapeutics Program. […] The stock solutions were prepared in dimethyl sulfoxide (DMSO, Sigma-Aldrich, St. Louis, MO, cat. D2650) at 800-fold the tested concentration and stored at -70 degrees C prior to their use. All drugs and investigational agents were tested over a range starting from a high concentration at or near the clinical Cmax and decreasing in half-log increments. If the clinical Cmax for an agent had not been determined, the highest concentration tested was 10 microM.
Cell Culture. All cells were maintained in an incubator at 37 degrees C and 5% CO2 with 95% humidity. The PDC lines were cultured according to standard operating procedures established by the NCI PDMR (https://pdmr.cancer.gov/sops/default.htm). All PDCs were thawed and cultured in Matrigel-coated flasks prepared with a working solution of 1X Ham's F-12 nutrient mix, without supplementation (Invitrogen, Waltham, MA, cat. 11765054), 100 U/mL penicillin-streptomycin (Invitrogen, cat. 15140122), and 2.5% Matrigel (Corning Inc., Corning, NY, cat. 354248) for the first three passages. The 354836-022-R-J1-PDC, 475296-252-R-J1-PDC, and 997726-040-R-J2-PDC lines were cultured in 6A media, which includes advanced DMEM/F-12 (Thermo Fisher Scientific, cat. 12634028), 10 mM HEPES (Thermo Fisher Scientific, cat. 15630080), 1X GlutaMAX supplement (Thermo Fisher Scientific, cat. 35050061), 0.1 mg/mL primocin (InvivoGen, San Diego, CA, cat. ant-pm-2), 10% defined fetal bovine serum, heat inactivated (HyClone Laboratories Inc., Logan, UT, cat. SH30070.03HI), 50% L-WRN conditioned media (ATCC, cat. CRL-3276), 1.25 mM N-Acetyl-L-cysteine (Sigma-Aldrich, cat. A9165), 10 mM nicotinamide (Sigma-Aldrich, cat. N0636), 1X B-27 supplement (Thermo Fisher Scientific, cat. 17504044), 1X N-2 supplement (Thermo Fisher Scientific, cat. 17502048), and 10 microM Y-27632 dihydrochloride (Tocris Bioscience, Bristol, United Kingdom, cat. 1254). The 624824-186-R-J2-PDC line was cultured in 6C/Colon 1B media, which includes all 6A media components plus 50 ng/mL human EGF recombinant protein (Thermo Fisher Scientific, cat. PHG0311). […]
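Also: spheroids exposed to compounds for seven days before reading.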

Q: CC(Nc1ccc2c(c1)OCCn1cc(N3C(=O)OCC3C(F)F)nc1-2)C(N)=O (configuration not stated) was tested. Which viability, T/C (compound 0.01 µM) did it give?
A: 99% [middle of 8 runs]

Q: What about the viability, T/C (compound 0.1 µM) of the same molecule?
A: 106% [middle of 8 runs]

Q: What about the viability, T/C (compound 0.316 µM) of the same molecule?
A: 91.7% [middle of 8 runs]

Q: What about the viability, T/C (compound 1 µM) of the same molecule?
A: 76.9% [middle of 8 runs]

Q: And the pIC50 (compound alone, run of 04/24/2023)?
A: < 6.00

Q: Cn1nccc1Nc1nccc(-c2ccn(C(CO)c3ccc(Cl)c(F)c3)c(=O)c2)n1 (configuration not stated) + COc1c(OCCCN2CCOCC2)ccc2c3n(c(=NC(=O)c4cnc(N)nc4)nc12)CCN3 was tested. Which pIC50 (curve of first compound, second compound 0.00316 µM) did it give?
A: < 5.00

Q: And the pIC50 (curve of first compound, second compound 0.01 µM)?
A: < 5.00

Q: What about the pIC50 (curve of first compound, second compound 0.0316 µM) of the same molecule?
A: < 5.00

Q: And the pIC50 (curve of first compound, second compound 0.1 µM)?
A: < 5.00

Q: And the pIC50 (curve of first compound, second compound 0.316 µM)?
A: > 7.50

Q: What about the pIC50 (curve of first compound, second compound 1 µM) of the same molecule?
A: > 7.50

Q: What about the viability, T/C (second compound 0.00316 µM, first compound 0.0316 µM) of the same molecule?
A: 117%

Q: And the viability, T/C (second compound 0.00316 µM, first compound 0.1 µM)?
A: 108%

Q: And the viability, T/C (second compound 0.00316 µM, first compound 0.316 µM)?
A: 98.9%

Q: And the viability, T/C (second compound 0.00316 µM, first compound 1 µM)?
A: 83.7%

Q: What about the viability, T/C (second compound 0.00316 µM, first compound 3.16 µM) of the same molecule?
A: 90.9%

Q: And the viability, T/C (second compound 0.00316 µM, first compound 10 µM)?
A: 80.7%

Q: What about the viability, T/C (second compound 0.01 µM, first compound 0.0316 µM) of the same molecule?
A: 99%

Q: And the viability, T/C (second compound 0.01 µM, first compound 0.1 µM)?
A: 93.7%

Q: And the viability, T/C (second compound 0.01 µM, first compound 0.316 µM)?
A: 90.1%

Q: What about the viability, T/C (second compound 0.01 µM, first compound 1 µM) of the same molecule?
A: 136%

Q: And the viability, T/C (second compound 0.01 µM, first compound 3.16 µM)?
A: 127%

Q: What about the viability, T/C (second compound 0.01 µM, first compound 10 µM) of the same molecule?
A: 84.2%

Q: And the viability, T/C (second compound 0.0316 µM, first compound 0.0316 µM)?
A: 91.9%

Q: And the viability, T/C (second compound 0.0316 µM, first compound 0.1 µM)?
A: 102%

Q: What about the viability, T/C (second compound 0.0316 µM, first compound 0.316 µM) of the same molecule?
A: 100%

Q: What about the viability, T/C (second compound 0.0316 µM, first compound 1 µM) of the same molecule?
A: 89.1%

Q: And the viability, T/C (second compound 0.0316 µM, first compound 3.16 µM)?
A: 93.5%

Q: And the viability, T/C (second compound 0.0316 µM, first compound 10 µM)?
A: 89.2%

Q: And the viability, T/C (second compound 0.1 µM, first compound 0.0316 µM)?
A: 71%

Q: What about the viability, T/C (second compound 0.1 µM, first compound 0.1 µM) of the same molecule?
A: 75.9%

Q: What about the viability, T/C (second compound 0.1 µM, first compound 0.316 µM) of the same molecule?
A: 81.1%

Q: What about the viability, T/C (second compound 0.1 µM, first compound 1 µM) of the same molecule?
A: 82.2%

Q: And the viability, T/C (second compound 0.1 µM, first compound 3.16 µM)?
A: 84.3%

Q: What about the viability, T/C (second compound 0.1 µM, first compound 10 µM) of the same molecule?
A: 64.9%

Q: What about the viability, T/C (second compound 0.316 µM, first compound 0.0316 µM) of the same molecule?
A: 39.8%

Q: And the viability, T/C (second compound 0.316 µM, first compound 0.1 µM)?
A: 45.6%

Q: What about the viability, T/C (second compound 0.316 µM, first compound 0.316 µM) of the same molecule?
A: 45.3%

Q: What about the viability, T/C (second compound 0.316 µM, first compound 1 µM) of the same molecule?
A: 41.7%

Q: And the viability, T/C (second compound 0.316 µM, first compound 3.16 µM)?
A: 33.4%

Q: And the viability, T/C (second compound 0.316 µM, first compound 10 µM)?
A: 27.8%

Q: And the viability, T/C (second compound 1 µM, first compound 0.0316 µM)?
A: 18.1%

Q: What about the viability, T/C (second compound 1 µM, first compound 0.1 µM) of the same molecule?
A: 19.8%

Q: And the viability, T/C (second compound 1 µM, first compound 0.316 µM)?
A: 21.8%

Q: What about the viability, T/C (second compound 1 µM, first compound 1 µM) of the same molecule?
A: 18.6%

Q: What about the viability, T/C (second compound 1 µM, first compound 3.16 µM) of the same molecule?
A: 18.6%

Q: What about the viability, T/C (second compound 1 µM, first compound 10 µM) of the same molecule?
A: 16.8%
